Values after ≈ are worked out from the molar mass of the structure shown.
How the values were obtained:
[1] = biological target: T1, Fructose-bisphosphate aldolase class 2 (Synechocystis sp. (strain PCC 6803 / Kazusa)) (UniProt Q55664); experiment: (§1) Inhibition of recombinant Synechocystis sp. PCC 6803 FBA2 expressed in Escherichia coli BL21 (DE3) using FBP as substrate measured over 5 mins; set-up: concentration or dose not given beside the values
T1 sequence (whole entry): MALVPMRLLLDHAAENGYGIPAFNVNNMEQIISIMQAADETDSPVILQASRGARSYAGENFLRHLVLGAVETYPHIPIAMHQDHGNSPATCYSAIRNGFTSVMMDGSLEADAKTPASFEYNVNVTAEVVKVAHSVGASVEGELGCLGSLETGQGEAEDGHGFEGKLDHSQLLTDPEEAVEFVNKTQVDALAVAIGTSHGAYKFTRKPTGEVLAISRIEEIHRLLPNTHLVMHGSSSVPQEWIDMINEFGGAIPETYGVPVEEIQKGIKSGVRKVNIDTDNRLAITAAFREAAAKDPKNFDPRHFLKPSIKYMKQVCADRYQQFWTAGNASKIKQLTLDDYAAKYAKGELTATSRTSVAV

[2] = biological target: T2, Fructose-bisphosphate aldolase class 2 (Synechocystis sp. (strain PCC 6803 / Kazusa), UniProt Q55664); experiment: as §1
T2 sequence (Q55664 whole entry): T1 sequence (whole entry)

[3] = tested on: Synechocystis sp. PCC 6803; experiment: Algicidal activity against wild-type Synechocystis sp. PCC 6803 after 24 hrs by microbroth dilution method; type: functional, organism-based
[4] = tested on: Synechocystis sp. PCC 6803; experiment: Selectivity ratio of Ki for recombinant Synechocystis sp. PCC 6803 FBA2 T278A mutant expressed in Escherichia coli BL21 (DE3) to Ki for recombinant Synechocystis sp. PCC 6803 FBA2 expressed in Escherichia coli BL21 (DE3)
[5] = tested on: Synechocystis sp. PCC 6803; experiment: Selectivity ratio of Ki for recombinant Synechocystis sp. PCC 6803 FBA2 D277A mutant expressed in Escherichia coli BL21 (DE3) to Ki for recombinant Synechocystis sp. PCC 6803 FBA2 expressed in Escherichia coli BL21 (DE3)
[6] = biological target: Fructose-bisphosphate aldolase class 2 (Synechocystis sp. (strain PCC 6803 / Kazusa), UniProt Q55664, S50A); experiment: Inhibition of recombinant Synechocystis sp. PCC 6803 FBA2 S50A mutant expressed in Escherichia coli BL21 (DE3) using FBP as substrate measured over 5 mins
Sequence of Fructose-bisphosphate aldolase class 2 (Synechocystis sp. (strain PCC 6803 / Kazusa), UniProt Q55664, S50A) (Q55664 2-359 S50A limits assumed): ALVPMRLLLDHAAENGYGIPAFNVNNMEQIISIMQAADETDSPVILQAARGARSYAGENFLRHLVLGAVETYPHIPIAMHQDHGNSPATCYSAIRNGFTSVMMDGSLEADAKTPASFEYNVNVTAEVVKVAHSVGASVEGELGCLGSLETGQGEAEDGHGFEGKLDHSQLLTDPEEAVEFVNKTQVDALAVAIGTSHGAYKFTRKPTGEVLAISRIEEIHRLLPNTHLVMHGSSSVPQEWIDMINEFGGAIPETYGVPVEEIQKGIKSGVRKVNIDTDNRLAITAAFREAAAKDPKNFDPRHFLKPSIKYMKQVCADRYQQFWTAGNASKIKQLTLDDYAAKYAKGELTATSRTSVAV

[7] = biological target: Fructose-bisphosphate aldolase class 2 (Synechocystis sp. (strain PCC 6803 / Kazusa), UniProt Q55664, R302A); experiment: Inhibition of recombinant Synechocystis sp. PCC 6803 FBA2 R302A mutant expressed in Escherichia coli BL21 (DE3) using FBP as substrate measured over 5 mins
Sequence of Fructose-bisphosphate aldolase class 2 (Synechocystis sp. (strain PCC 6803 / Kazusa), UniProt Q55664, R302A) (Q55664 2-359 R302A limits assumed): as the sequence (Q55664 2-359 S50A limits assumed) above, with A49S, R301A counted along it

[8] = biological target: Fructose-bisphosphate aldolase class 2 (Synechocystis sp. (strain PCC 6803 / Kazusa), UniProt Q55664, N275A); experiment: Inhibition of recombinant Synechocystis sp. PCC 6803 FBA2 N275A mutant expressed in Escherichia coli BL21 (DE3) using FBP as substrate measured over 5 mins
Sequence of Fructose-bisphosphate aldolase class 2 (Synechocystis sp. (strain PCC 6803 / Kazusa), UniProt Q55664, N275A) (Q55664 2-359 N275A limits assumed): as the sequence (Q55664 2-359 S50A limits assumed) above, with A49S, N274A counted along it

[9] = biological target: Fructose-bisphosphate aldolase class 2 (Synechocystis sp. (strain PCC 6803 / Kazusa), UniProt Q55664, R281A); experiment: Inhibition of recombinant Synechocystis sp. PCC 6803 FBA2 R281A mutant expressed in Escherichia coli BL21 (DE3) using FBP as substrate measured over 5 mins
Sequence of Fructose-bisphosphate aldolase class 2 (Synechocystis sp. (strain PCC 6803 / Kazusa), UniProt Q55664, R281A) (Q55664 2-359 R281A limits assumed): as the sequence (Q55664 2-359 S50A limits assumed) above, with A49S, R280A counted along it

[10] = biological target: Fructose-bisphosphate aldolase class 2 (Synechocystis sp. (strain PCC 6803 / Kazusa), UniProt Q55664, R51A); experiment: Inhibition of recombinant Synechocystis sp. PCC 6803 FBA2 R51A mutant expressed in Escherichia coli BL21 (DE3) using FBP as substrate measured over 5 mins
Sequence of Fructose-bisphosphate aldolase class 2 (Synechocystis sp. (strain PCC 6803 / Kazusa), UniProt Q55664, R51A) (Q55664 2-359 R51A limits assumed): as the sequence (Q55664 2-359 S50A limits assumed) above, with A49S, R50A counted along it

[11] = biological target: Fructose-bisphosphate aldolase class 2 (Synechocystis sp. (strain PCC 6803 / Kazusa), UniProt Q55664, S55A); experiment: Inhibition of recombinant Synechocystis sp. PCC 6803 FBA2 S55A mutant expressed in Escherichia coli BL21 (DE3) using FBP as substrate measured over 5 mins
Sequence of Fructose-bisphosphate aldolase class 2 (Synechocystis sp. (strain PCC 6803 / Kazusa), UniProt Q55664, S55A) (Q55664 2-359 S55A limits assumed): as the sequence (Q55664 2-359 S50A limits assumed) above, with A49S, S54A counted along it

[12] = biological target: Fructose-bisphosphate aldolase class 2 (Synechocystis sp. (strain PCC 6803 / Kazusa), UniProt Q55664, D277A); experiment: Inhibition of recombinant Synechocystis sp. PCC 6803 FBA2 D277A mutant expressed in Escherichia coli BL21 (DE3) using FBP as substrate measured over 5 mins
Sequence of Fructose-bisphosphate aldolase class 2 (Synechocystis sp. (strain PCC 6803 / Kazusa), UniProt Q55664, D277A) (Q55664 2-359 D277A limits assumed): as the sequence (Q55664 2-359 S50A limits assumed) above, with A49S, D276A counted along it

[13] = tested on: Synechocystis sp. PCC 6803; experiment: Selectivity ratio of Ki for recombinant Synechocystis sp. PCC 6803 FBA2 R302A mutant expressed in Escherichia coli BL21 (DE3) to Ki for recombinant Synechocystis sp. PCC 6803 FBA2 expressed in Escherichia coli BL21 (DE3)
[14] = tested on: Synechocystis sp. PCC 6803; experiment: Selectivity ratio of Ki for recombinant Synechocystis sp. PCC 6803 FBA2 N275A mutant expressed in Escherichia coli BL21 (DE3) to Ki for recombinant Synechocystis sp. PCC 6803 FBA2 expressed in Escherichia coli BL21 (DE3)
[15] = tested on: Synechocystis sp. PCC 6803; experiment: Selectivity ratio of Ki for recombinant Synechocystis sp. PCC 6803 FBA2 R281A mutant expressed in Escherichia coli BL21 (DE3) to Ki for recombinant Synechocystis sp. PCC 6803 FBA2 expressed in Escherichia coli BL21 (DE3)
[16] = biological target: Fructose-bisphosphate aldolase class 2 (Synechocystis sp. (strain PCC 6803 / Kazusa), UniProt Q55664, T278A); experiment: Inhibition of recombinant Synechocystis sp. PCC 6803 FBA2 T278A mutant expressed in Escherichia coli BL21 (DE3) using FBP as substrate measured over 5 mins
Sequence of Fructose-bisphosphate aldolase class 2 (Synechocystis sp. (strain PCC 6803 / Kazusa), UniProt Q55664, T278A) (Q55664 2-359 T278A limits assumed): as the sequence (Q55664 2-359 S50A limits assumed) above, with A49S, T277A counted along it

[17] = tested on: Synechocystis sp. PCC 6803; experiment: Selectivity ratio of Ki for recombinant Synechocystis sp. PCC 6803 FBA2 R51A mutant expressed in Escherichia coli BL21 (DE3) to Ki for recombinant Synechocystis sp. PCC 6803 FBA2 expressed in Escherichia coli BL21 (DE3)
[18] = tested on: Synechocystis sp. PCC 6803; experiment: Selectivity ratio of Ki for recombinant Synechocystis sp. PCC 6803 FBA2 S55A mutant expressed in Escherichia coli BL21 (DE3) to Ki for recombinant Synechocystis sp. PCC 6803 FBA2 expressed in Escherichia coli BL21 (DE3)
[19] = tested on: Synechocystis sp. PCC 6803; experiment: Selectivity ratio of Ki for recombinant Synechocystis sp. PCC 6803 FBA2 S50A mutant expressed in Escherichia coli BL21 (DE3) to Ki for recombinant Synechocystis sp. PCC 6803 FBA2 expressed in Escherichia coli BL21 (DE3)
[20] = Solubility of the compound; type: physicochemical
[21] = Lipophilicity, log P of the compound; type: physicochemical; conditions: octanol/water
[22] = tested on: Synechocystis sp. PCC 6803; experiment: Selectivity ratio of EC50 for FBA2 over-expressing Synechocystis sp. PCC 6803 to EC50 for wild-type Synechocystis sp. PCC 6803; type: functional
[23] = tested on: Synechocystis sp. PCC 6803; experiment: Algicidal activity against FBA2 over-expressing Synechocystis sp. PCC 6803 after 24 hrs by microbroth dilution method; type: functional, organism-based; conditions: Synechocystis sp. PCC 6803, 24 h
[24] = Synechocystis sp. PCC 6803, 24 h, read-out: EC50

## O=C(NC(=S)Nc1ccc([N+](=O)[O-])cc1)c1ccccc1
[1]
  inhibition: 60%

## O=C(NNC(=S)NC(=O)c1ccccc1)c1cccc(Br)c1
[2]
  Ki: 3.1 µM
[3]
  EC50: 5.9 ppm

## O=C(NC(=S)Nc1ccccc1O)c1ccccc1
[1]
  inhibition: 37%

## O=C(NNC(=S)NC(=O)c1ccccc1)c1cccc([N+](=O)[O-])c1
[2]
  Ki: 1.87 µM
[3]
  EC50: 0.39 ppm

## O=C(NC(=S)Nc1ccc([N+](=O)[O-])cc1O)c1ccc([N+](=O)[O-])cc1
[4]
  Ratio Ki: 46.3
[5]
  Ratio Ki: 2.4
[6]
  Ki: 3.9 µM
[7]
  Ki: 24.4 µM
[8]
  Ki: 37.9 µM
[9]
  Ki: 144 µM
[10]
  Ki: 3.3 µM
[11]
  Ki: 3.4 µM
[12]
  Ki: 4.6 µM
[13]
  Ratio Ki: 12.9
[14]
  Ratio Ki: 20
[15]
  Ratio Ki: 76
[16]
  Ki: 87.5 µM
[17]
  Ratio Ki: 1.7
[18]
  Ratio Ki: 2.1
[2]
  Ki: 1.9 µM
[19]
  Ratio Ki: 2.1

## O=C(O)c1cccc([C@@H]2CCC[C@@H]2c2ncc3nc[nH]c3n2)c1
[20]
  solubility: 13100 µg/mL (≈ 42600 µM)
[21]
  logP: 2.96

## O=CNC(=S)Nc1cc(-c2ccccc2)c([N+](=O)[O-])cc1O
[20]
  solubility: 160 µg/mL (≈ 504 µM)
[21]
  logP: 2.45

## N[C@@H](Cc1ccc(O)cc1-c1ccccc1)c1ccccc1O
[20]
  solubility: 6350 µg/mL (≈ 20800 µM)
[21]
  logP: 3.23

## O=C(NC(=S)Nc1ccccc1[N+](=O)[O-])c1ccccc1
[1]
  inhibition: 15%

## O=C(NC(=S)Nc1ccc(O)cc1)c1ccccc1
[1]
  inhibition: 22%

## O=C(NC(=S)Nc1ccc([N+](=O)[O-])cc1O)c1ccccc1
[20]
  solubility: 180 µg/mL (≈ 567 µM)
[2]
  Ki: 16.7 µM
[21]
  logP: 2.6

## O=C(NC(=S)Nc1cc([N+](=O)[O-])ccc1O)c1ccc(Cl)cc1
[2]
  Ki: 9.1 µM

## O=C(NC(=S)Nc1ccc([N+](=O)[O-])cc1O)c1ccc(-c2ccccc2)cc1
[2]
  Ki: 2.5 µM

## O=C(NNC(=S)NC(=O)c1ccccc1)c1ccc(F)cc1
[2]
  Ki: 3.5 µM
[3]
  EC50: 8.2 ppm

## O[C@H]1CO[C@@H](O)C(c2nc3ncncc3n2-c2ccccc2)C1 (stereo not given in full)
[20]
  solubility: 440 µg/mL (≈ 1410 µM)
[21]
  logP: 0.82

## Oc1cccc(COC2CC[C@@H](O)C(Cc3ccccc3)O2)c1 (stereo not given in full)
[20]
  solubility: 200 µg/mL (≈ 636 µM)
[21]
  logP: 3.32

## O=C(NC(=S)Nc1ccc(Br)cc1)c1ccccc1
[1]
  inhibition: 42%

## O=C(NC(=S)Nc1ccccc1Cl)c1ccccc1
[1]
  inhibition: 30%

## c1ccc(-n2c(-n3cnc4ncncc43)nc3cncnc32)cc1
[20]
  solubility: 290 µg/mL (≈ 923 µM)
[21]
  logP: 0.99

## O=C(NNC(=S)NC(=O)c1ccccc1)c1ccc([N+](=O)[O-])cc1
[2]
  Ki: 2.8 µM
[3]; [24]
  EC50: 2.7 µM

## O[C@@H]1CC[C@@](O)(n2c(-c3ccccc3)nc3ncncc32)OC1
[20]
  solubility: 730 µg/mL (≈ 2340 µM)
[21]
  logP: 0.94

## CCNCCc1ccccc1-c1ccccc1
[20]
  solubility: 8350 µg/mL (≈ 37100 µM)
[21]
  logP: 4

## O=C(NC(=S)Nc1ccc([N+](=O)[O-])cc1O)c1ccc(C(F)(F)F)cc1
[2]
  Ki: 5.5 µM

## O=CNC(=S)Nc1c(O)cc([N+](=O)[O-])cc1-c1ccccc1
[20]
  solubility: 160 µg/mL (≈ 504 µM)
[21]
  logP: 2.48

## Cc1ccc(C(=O)NC(=S)Nc2ccc([N+](=O)[O-])cc2O)cc1
[2]
  Ki: 5.5 µM

## O=C(NC(=S)NNC(=O)c1ccccc1O)c1ccc(F)cc1
[2]
  Ki: 0.88 µM
[3]; [24]
  EC50: 0.88 µM

## O=C(NC(=S)NNC(=O)c1ccc(O)cc1O)c1ccccc1
[2]
  Ki: 1.25 µM
[3]; [24]
  EC50: 1.25 µM

## O=C(NC(=S)NNC(=O)c1ccccc1O)c1ccccc1
[4]
  Ratio Ki: 6.6
[5]
  Ratio Ki: 11
[6]
  Ki: 15.2 µM
[7]
  Ki: 20.4 µM
[8]
  Ki: 15.9 µM
[9]
  Ki: 52.3 µM
[10]
  Ki: 3.9 µM
[11]
  Ki: 1 µM
[12]
  Ki: 7.2 µM
[13]
  Ratio Ki: 31
[14]
  Ratio Ki: 24.5
[22]
  Ratio EC50: 18
[15]
  Ratio Ki: 80.5
[16]
  Ki: 4.3 µM
[17]
  Ratio Ki: 6
[18]
  Ratio Ki: 1.5
[2]
  Ki: 0.65 to 0.7 µM
[23]
  EC50: 4.98 µM
[19]
  Ratio Ki: 23.4
[3]; [24]
  EC50: 0.28 µM

## O=C(NNC(=S)NC(=O)c1ccccc1)c1ccc(Br)cc1
[2]
  Ki: 5.2 µM
[3]
  EC50: 1.58 ppm

## O=C(NC(=S)NNC(=O)c1ccccc1O)c1ccc(Cl)cc1
[2]
  Ki: 0.63 µM
[3]
  EC50: 0.98 ppm

## O=C(NC(=S)Nc1cc([N+](=O)[O-])ccc1O)c1ccccc1
[2]
  Ki: 9.1 µM

Source: ChEMBL document CHEMBL4422665, “Design, synthesis and algicides activities of thiourea derivatives as the novel scaffold aldolase inhibitors” (Bioorg Med Chem, 2019)
